pIC50, pKi: −log10 of the molar value.

Data set [1] deals with T1, Alpha-2B adrenergic receptor (Homo sapiens) (UniProt P18089).
T1 sequence (whole entry): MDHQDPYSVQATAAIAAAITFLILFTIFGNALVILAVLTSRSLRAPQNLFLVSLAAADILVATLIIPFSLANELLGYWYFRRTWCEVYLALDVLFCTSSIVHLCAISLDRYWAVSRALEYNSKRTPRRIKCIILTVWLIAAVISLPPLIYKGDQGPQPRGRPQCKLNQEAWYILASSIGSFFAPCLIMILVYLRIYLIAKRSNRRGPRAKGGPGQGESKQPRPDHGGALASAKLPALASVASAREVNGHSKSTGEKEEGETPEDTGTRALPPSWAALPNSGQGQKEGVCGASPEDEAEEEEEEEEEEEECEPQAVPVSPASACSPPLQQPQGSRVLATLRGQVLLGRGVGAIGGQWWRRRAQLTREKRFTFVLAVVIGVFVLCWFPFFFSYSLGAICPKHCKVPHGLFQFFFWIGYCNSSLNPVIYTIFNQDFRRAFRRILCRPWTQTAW
Description: alpha 2B (h) CEREP ligand profiling. As to conditions: Compound concentration 10.0 uM; call rule not given here.

For data set [2], the target named is Voltage-gated L-type calcium channel (verapamil site) (Homo sapiens, UniProt O60840+Q01668+Q13698+Q13936). The data set is described as follows: Ca2+ channel (L, verapamil site) CEREP ligand profiling. It is filed as protein assay. As to conditions: compound concentration 10 uM.
The target of data set [3] is GABA-A receptor; anion channel (Homo sapiens) (UniProt P14867+P47870+P18507+P28472+P48169+Q99928+Q9UN88+P34903+O00591+O14764+Q8N1C3+P18505+P78334+P47869+P31644+Q16445). Description: Cl- channel CEREP ligand profiling. The class given is protein-complex assay. As to conditions: Compound concentration 10.0 uM.
In data set [4] the target is D(2) dopamine receptor (Homo sapiens) (UniProt P14416). Description: D2S (h) CEREP ligand profiling. The note with it: Compound concentration 10.0 uM.
In data set [5] the target is T2, D(4) dopamine receptor (Homo sapiens) (UniProt P21917).
T2 sequence (whole entry): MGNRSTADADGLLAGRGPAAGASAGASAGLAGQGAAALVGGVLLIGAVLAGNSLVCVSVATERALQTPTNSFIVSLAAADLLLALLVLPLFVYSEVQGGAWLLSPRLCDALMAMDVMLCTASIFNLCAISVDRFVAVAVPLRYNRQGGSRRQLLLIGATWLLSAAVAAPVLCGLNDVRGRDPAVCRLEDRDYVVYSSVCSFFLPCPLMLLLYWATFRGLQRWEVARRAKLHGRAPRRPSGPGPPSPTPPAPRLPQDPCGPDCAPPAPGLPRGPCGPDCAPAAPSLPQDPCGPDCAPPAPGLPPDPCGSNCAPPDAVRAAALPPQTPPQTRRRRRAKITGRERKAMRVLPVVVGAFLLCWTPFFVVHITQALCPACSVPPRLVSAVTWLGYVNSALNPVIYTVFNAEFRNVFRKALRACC
Description: D4.4 (h) CEREP ligand profiling. As to conditions: Compound concentration 10.0 uM.

The target of data set [6] is Vascular endothelial growth factor receptor 1 (Homo sapiens) (UniProt P17948). The data set is described as follows: FLT-1 kinase (h) (VEGFR1) CEREP ligand profiling. As to conditions: Compound concentration 10.0 uM.
For data set [7], the target named is Leukotriene B4 receptor 1 (Homo sapiens, UniProt Q15722). Description: LTB4 (h) (BLT1) CEREP ligand profiling.
Data set [8] has as its target Cysteinyl leukotriene receptor 1 (Homo sapiens) (UniProt Q9Y271). The data set is described as follows: LTD4 (h) (CysLT1) CEREP ligand profiling. As to conditions: Compound concentration 10.0 uM.
The target of data set [9] is Glutamate [NMDA] receptor (Homo sapiens) (UniProt Q05586+Q12879+Q13224+O15399+O60391+Q14957+Q8TCU5). Description: NMDA CEREP ligand profiling. The class given is protein-complex assay. As to conditions: Compound concentration 10.0 uM.
The target in data set [10] is Vasopressin V2 receptor (Homo sapiens) (UniProt P30518). Description: V2 (h) CEREP ligand profiling. As to conditions: Compound concentration 10.0 uM.
The target of data set [11] is Neuropeptide Y receptor type 1 (Homo sapiens) (UniProt P25929). Description: Y1 (h) CEREP ligand profiling. The note with it: Compound concentration 10.0 uM.
For data set [12], the system named is Tyrosine-protein kinase ABL1 (Homo sapiens), P00519 [H396P]. The note with it: Compound concentration 1000.0 nM.
In data set [13] the test system is Tyrosine-protein kinase ABL1 (Homo sapiens), P00519 [T315I]. As to conditions: Compound concentration 1000.0 nM.
The target of data set [14] is Activin receptor type-1B (Homo sapiens) (UniProt P36896). As to conditions: Compound concentration 1000.0 nM.
Data set [15] concerns the target Mitogen-activated protein kinase kinase kinase 5 (Homo sapiens) (UniProt Q99683). The note with it: Compound concentration 1000.0 nM.
In data set [16] the target is Aurora kinase C (Homo sapiens) (UniProt Q9UQB9). The note with it: Compound concentration 1000.0 nM.
Data set [17] addresses Bone morphogenetic protein receptor type-1B (Homo sapiens) (UniProt O00238). As to conditions: Compound concentration 1000.0 nM.
The target of data set [18] is Cyclin-dependent kinase 3 (Homo sapiens) (UniProt Q00526). The note with it: Compound concentration 1000.0 nM.
In data set [19] the target is Cyclin-dependent kinase 4 (Homo sapiens) (UniProt P11802). As to conditions: Compound concentration 1000.0 nM.
For data set [20], the target named is Cyclin-dependent kinase 8 (Homo sapiens) (UniProt P49336). As to conditions: Compound concentration 1000.0 nM.
In data set [21] the target is Serine/threonine-protein kinase 17A (Homo sapiens) (UniProt Q9UEE5). As to conditions: Compound concentration 1000.0 nM.
The target in data set [22] is Ephrin type-A receptor 1 (Homo sapiens) (UniProt P21709). As to conditions: Compound concentration 1000.0 nM.
The target in data set [23] is Insulin receptor-related protein (Homo sapiens) (UniProt P14616). As to conditions: Compound concentration 1000.0 nM.
In data set [24] the target is Interleukin-1 receptor-associated kinase 4 (Homo sapiens) (UniProt Q9NWZ3). The note with it: Compound concentration 1000.0 nM.
The target in data set [25] is Tyrosine-protein kinase Lyn (Homo sapiens) (UniProt P07948). The note with it: Compound concentration 1000.0 nM.
The target in data set [26] is Mitogen-activated protein kinase kinase kinase 4 (Homo sapiens) (UniProt Q9Y6R4). As to conditions: Compound concentration 1000.0 nM.
Data set [27] concerns the target Serine/threonine-protein kinase 38 (Homo sapiens) (UniProt Q15208). As to conditions: Compound concentration 1000.0 nM.
For data set [28], the target named is Serine/threonine-protein kinase PknB (Mycobacterium tuberculosis) (UniProt P9WI81). The note with it: Compound concentration 1000.0 nM.
The target in data set [29] is Receptor-interacting serine/threonine-protein kinase 4 (Homo sapiens) (UniProt P57078). As to conditions: Compound concentration 1000.0 nM.
In data set [30] the target is NT-3 growth factor receptor (Homo sapiens) (UniProt Q16288). As to conditions: Compound concentration 1000.0 nM.
Data set [31] deals with Serine/threonine-protein kinase ULK1 (Homo sapiens) (UniProt O75385). As to conditions: Compound concentration 1000.0 nM.
Data set [32] deals with Prostaglandin E2 receptor EP2 subtype (Homo sapiens, UniProt P43116). The data set is described as follows: Inhibition of binding to PTGER2.
Chain of Prostaglandin E2 receptor EP2 subtype (P43116 whole entry): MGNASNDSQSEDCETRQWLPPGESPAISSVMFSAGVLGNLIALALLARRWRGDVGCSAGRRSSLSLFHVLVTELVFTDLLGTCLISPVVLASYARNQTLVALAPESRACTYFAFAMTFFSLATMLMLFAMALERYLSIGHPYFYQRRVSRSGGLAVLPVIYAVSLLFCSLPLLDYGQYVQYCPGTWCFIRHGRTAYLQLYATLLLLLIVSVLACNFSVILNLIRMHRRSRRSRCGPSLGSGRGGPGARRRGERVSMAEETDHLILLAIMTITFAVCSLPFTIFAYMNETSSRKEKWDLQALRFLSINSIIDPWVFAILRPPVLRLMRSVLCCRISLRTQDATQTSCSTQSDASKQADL

Chain of Leukotriene B4 receptor 1 (Q15722 whole entry): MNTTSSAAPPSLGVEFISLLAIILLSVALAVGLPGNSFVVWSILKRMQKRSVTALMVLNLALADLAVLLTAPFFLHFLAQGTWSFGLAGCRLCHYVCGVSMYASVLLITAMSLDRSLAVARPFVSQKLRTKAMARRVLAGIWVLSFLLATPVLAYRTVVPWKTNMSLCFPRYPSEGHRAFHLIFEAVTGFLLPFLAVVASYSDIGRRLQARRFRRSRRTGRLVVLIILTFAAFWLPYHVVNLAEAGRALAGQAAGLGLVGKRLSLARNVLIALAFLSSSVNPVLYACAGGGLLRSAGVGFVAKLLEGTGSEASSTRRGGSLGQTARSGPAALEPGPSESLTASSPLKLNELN
Chain of Cyclin-dependent kinase 4 (Homo sapiens) (P11802 whole entry): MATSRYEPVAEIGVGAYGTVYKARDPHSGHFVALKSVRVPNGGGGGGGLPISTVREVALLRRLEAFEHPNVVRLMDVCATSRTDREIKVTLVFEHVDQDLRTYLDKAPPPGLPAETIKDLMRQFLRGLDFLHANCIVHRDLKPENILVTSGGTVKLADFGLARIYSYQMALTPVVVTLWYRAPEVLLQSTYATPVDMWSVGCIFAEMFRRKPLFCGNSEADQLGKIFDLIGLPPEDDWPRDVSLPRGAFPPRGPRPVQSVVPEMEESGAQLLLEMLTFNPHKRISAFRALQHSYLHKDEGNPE
Chain of Serine/threonine-protein kinase 17A (Homo sapiens) (Q9UEE5 whole entry): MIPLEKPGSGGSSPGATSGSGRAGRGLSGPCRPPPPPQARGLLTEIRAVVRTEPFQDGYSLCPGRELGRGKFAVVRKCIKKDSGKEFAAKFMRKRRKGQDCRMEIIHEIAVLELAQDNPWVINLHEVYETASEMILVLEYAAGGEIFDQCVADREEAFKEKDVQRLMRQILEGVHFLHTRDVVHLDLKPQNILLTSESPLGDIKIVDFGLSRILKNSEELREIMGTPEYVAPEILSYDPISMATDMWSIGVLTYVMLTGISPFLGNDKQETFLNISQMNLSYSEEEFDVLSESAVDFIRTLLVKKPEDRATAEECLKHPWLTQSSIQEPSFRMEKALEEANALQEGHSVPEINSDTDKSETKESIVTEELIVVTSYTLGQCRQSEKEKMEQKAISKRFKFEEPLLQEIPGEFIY
Chain of Cyclin-dependent kinase 3 (Homo sapiens) (Q00526 whole entry, looked up): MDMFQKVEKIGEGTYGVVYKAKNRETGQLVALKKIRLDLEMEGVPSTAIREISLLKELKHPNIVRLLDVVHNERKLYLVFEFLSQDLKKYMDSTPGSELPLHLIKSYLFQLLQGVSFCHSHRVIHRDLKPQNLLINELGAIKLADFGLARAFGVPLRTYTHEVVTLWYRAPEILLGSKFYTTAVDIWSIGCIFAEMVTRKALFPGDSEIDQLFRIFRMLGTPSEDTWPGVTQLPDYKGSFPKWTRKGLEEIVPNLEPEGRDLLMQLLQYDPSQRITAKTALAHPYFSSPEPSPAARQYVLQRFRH
Chain of Serine/threonine-protein kinase ULK1 (Homo sapiens) (O75385 whole entry): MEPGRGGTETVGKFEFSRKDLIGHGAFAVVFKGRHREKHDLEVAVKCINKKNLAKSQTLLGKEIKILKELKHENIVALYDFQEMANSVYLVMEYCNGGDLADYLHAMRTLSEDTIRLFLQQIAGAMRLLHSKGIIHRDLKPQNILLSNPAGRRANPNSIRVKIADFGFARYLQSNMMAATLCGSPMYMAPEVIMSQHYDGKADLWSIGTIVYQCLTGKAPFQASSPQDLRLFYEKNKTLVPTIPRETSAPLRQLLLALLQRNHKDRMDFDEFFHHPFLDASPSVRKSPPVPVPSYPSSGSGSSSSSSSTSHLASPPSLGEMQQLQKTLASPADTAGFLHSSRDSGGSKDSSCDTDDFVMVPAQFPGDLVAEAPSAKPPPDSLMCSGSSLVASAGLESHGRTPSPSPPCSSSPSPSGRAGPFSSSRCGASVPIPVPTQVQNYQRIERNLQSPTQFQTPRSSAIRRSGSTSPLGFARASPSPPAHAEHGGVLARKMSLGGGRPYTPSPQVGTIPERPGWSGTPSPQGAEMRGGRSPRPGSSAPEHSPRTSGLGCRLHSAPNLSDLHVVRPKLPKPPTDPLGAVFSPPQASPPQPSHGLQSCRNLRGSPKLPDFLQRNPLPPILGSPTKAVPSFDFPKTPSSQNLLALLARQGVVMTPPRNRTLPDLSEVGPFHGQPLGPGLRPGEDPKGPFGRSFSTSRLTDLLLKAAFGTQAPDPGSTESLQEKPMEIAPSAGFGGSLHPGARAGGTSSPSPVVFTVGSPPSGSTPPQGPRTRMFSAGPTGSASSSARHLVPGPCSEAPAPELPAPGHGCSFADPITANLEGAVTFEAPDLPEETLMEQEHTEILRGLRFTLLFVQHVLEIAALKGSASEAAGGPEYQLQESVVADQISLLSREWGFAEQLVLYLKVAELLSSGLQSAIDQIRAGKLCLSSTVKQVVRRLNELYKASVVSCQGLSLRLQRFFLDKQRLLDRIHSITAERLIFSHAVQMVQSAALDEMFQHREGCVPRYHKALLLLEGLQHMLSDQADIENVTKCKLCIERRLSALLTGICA
Chain of Aurora kinase C (Homo sapiens) (Q9UQB9 whole entry): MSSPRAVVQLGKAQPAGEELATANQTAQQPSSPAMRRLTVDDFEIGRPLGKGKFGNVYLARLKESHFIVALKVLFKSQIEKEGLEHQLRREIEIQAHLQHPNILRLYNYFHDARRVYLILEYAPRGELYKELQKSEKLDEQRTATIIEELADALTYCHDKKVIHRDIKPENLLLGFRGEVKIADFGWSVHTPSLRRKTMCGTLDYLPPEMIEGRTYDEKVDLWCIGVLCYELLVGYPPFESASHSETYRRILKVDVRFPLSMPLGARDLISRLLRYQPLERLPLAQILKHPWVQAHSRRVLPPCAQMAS
Chain of NT-3 growth factor receptor (Homo sapiens) (Q16288 32-839 limits assumed): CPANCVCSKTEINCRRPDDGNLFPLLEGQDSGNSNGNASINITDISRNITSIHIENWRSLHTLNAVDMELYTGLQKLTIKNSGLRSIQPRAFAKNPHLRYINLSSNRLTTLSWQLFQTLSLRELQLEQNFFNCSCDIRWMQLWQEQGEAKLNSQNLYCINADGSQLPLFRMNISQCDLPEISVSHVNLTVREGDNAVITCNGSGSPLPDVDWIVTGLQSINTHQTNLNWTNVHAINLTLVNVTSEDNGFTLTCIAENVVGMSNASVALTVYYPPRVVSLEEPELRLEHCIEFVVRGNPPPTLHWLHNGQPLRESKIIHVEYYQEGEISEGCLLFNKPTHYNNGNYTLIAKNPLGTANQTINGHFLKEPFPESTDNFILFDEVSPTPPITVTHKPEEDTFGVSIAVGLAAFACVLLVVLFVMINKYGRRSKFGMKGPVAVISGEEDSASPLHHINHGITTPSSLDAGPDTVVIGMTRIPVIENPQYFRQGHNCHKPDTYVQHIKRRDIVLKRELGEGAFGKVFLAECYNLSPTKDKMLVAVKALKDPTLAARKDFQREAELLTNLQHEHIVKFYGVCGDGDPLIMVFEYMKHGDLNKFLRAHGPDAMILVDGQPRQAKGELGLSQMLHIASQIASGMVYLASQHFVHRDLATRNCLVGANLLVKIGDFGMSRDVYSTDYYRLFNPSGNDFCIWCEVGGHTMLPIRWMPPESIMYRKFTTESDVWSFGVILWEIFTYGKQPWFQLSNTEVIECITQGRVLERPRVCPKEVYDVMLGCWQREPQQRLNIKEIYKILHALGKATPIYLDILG
Chain of Tyrosine-protein kinase Lyn (Homo sapiens) (P07948 2-512 limits assumed): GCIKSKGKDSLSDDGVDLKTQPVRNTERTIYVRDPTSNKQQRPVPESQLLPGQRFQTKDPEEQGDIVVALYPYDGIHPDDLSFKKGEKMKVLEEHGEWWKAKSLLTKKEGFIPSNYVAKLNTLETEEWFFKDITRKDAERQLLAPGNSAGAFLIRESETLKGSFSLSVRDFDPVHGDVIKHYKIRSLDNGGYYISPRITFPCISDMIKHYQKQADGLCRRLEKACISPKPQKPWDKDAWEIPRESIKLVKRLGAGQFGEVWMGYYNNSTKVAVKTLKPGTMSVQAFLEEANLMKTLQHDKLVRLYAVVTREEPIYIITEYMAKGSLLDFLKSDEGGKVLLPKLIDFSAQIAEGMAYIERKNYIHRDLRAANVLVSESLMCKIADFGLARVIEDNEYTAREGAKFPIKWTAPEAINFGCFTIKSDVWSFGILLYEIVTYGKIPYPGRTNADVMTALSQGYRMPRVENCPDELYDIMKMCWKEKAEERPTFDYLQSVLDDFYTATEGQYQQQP
Chain of Bone morphogenetic protein receptor type-1B (Homo sapiens) (O00238 whole entry): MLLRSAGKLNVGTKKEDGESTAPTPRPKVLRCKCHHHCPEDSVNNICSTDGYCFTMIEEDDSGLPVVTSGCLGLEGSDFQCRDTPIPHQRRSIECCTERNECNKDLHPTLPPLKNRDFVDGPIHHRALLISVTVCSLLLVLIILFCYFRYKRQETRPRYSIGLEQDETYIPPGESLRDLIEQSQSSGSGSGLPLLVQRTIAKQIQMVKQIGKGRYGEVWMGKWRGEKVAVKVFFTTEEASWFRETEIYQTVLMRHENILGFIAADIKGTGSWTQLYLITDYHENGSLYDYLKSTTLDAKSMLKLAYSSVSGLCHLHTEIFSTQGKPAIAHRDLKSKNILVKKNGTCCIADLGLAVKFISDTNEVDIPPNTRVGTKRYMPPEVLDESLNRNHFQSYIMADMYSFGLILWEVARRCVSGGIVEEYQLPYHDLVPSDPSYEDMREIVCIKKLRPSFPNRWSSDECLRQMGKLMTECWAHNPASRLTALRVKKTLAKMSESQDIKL

The inhibition is the relative decrease from the control value, in per cent. Usually pIC50 stands for the negative decadic logarithm of the IC50, by convention in mol/L. Read a low pIC50 as a large IC50. For orientation: pKi means the negative decadic logarithm of the Ki, by convention in mol/L. Higher therefore signals a small Ki. Take `COc1ccc2cc(OCC3(C(=O)O)CN(C(=O)c4ccc(F)cc4)C3)ccc2c1` [PF-04418948]: the inhibition was 1% in data set [1]; 19% in data set [3]; -2% in data set [4]; -8% in [5]; 9% in data set [6]; 51% in [7] (Compound concentration 10.0 uM). For the same compound, the inhibition in data set [8] was 2%; in [9], 1%; in data set [10], -1%; in [11], 1%. For the same compound, the inhibition at 10 µM in data set [2] is recorded as -5% (not active). Further, the pIC50 in [7] is 5.01. For the same compound, the pKi in [7] was 5.32. Besides, the residual activity was 74% in [12]; 84% in [13]; 78% in data set [14]; 98% in data set [15]; 98% in [16]; 95% in data set [17]. Also, the residual activity is 83% in [18]; 90% in [19]; 94% in [20]; 81% in data set [21]; 83% in [22]; 67% in data set [23]. The residual activity in data set [24] is 87%; in data set [25], 85%; in [26] it was 65%; in data set [27] it was 98%; in data set [28] it was 88%; in [29], 66%. Further, the figures for the residual activity in [30] and in [31] were 98% and 92%, respectively.

By IC50 is commonly meant the concentration that gives 50% inhibition. Low readings indicate higher potency, high ones lower potency. On to `O=C(c1ccc(F)cc1)N1CC(COc2ccc(Br)cc2)(C(=O)O)C1` [PF-04475866], for which the IC50 in data set [32] is given as 1.3 µM (not active).

For the origin of these results see ChEMBL document CHEMBL4507298 (2021).
